In general, EC50 refers to the concentration giving half of the maximal effect.

The text below walks through data of US8143263B2, “Therapeutic agents” (Astrazeneca AB, priority 2008, dated 2012).

In this assay the target is T1, recombinant human pancreatic GLK (Homo sapiens, UniProt P35557).
T1 sequence (P35557 1-465): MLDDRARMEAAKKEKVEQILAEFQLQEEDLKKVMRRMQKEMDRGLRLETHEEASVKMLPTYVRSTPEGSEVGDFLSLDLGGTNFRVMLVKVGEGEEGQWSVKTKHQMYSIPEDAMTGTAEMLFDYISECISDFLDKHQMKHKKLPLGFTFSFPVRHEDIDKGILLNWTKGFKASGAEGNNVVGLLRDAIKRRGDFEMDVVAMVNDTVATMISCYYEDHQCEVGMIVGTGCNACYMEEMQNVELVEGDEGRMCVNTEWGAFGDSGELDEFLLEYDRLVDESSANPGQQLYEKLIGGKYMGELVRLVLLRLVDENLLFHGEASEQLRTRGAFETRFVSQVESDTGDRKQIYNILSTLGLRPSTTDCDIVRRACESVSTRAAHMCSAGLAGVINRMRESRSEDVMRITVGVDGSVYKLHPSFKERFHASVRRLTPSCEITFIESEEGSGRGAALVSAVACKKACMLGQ
The assay can be described thus: biochemical.
As for `N#Cc1ccc(NC(=O)[C@H](COCCO)Oc2ncnc3c2cnn3-c2ccccc2Cl)nc1` [Example 172, (2S)-2-[1-(2-chlorophenyl)pyrazolo[4,5-e]pyrimidin-4-yl]oxy-N-(5-cyanopyridin-2-yl)-3-(2-hydroxyethoxy)propanamide], the EC50 amounted to 0.81 µM.
As for `Cc1c(Cl)cccc1-n1ncc2c(O[C@@H](COCCO)C(=O)Nc3ccc(Cl)cn3)ncnc21` [Example 173, (2S)-2-[1-(3-chloro-2-methylphenyl)pyrazolo[4,5-e]pyrimidin-4-yl]oxy-N-(5-chloropyridin-2-yl)-3-(2-hydroxyethoxy)propanamide], the EC50 amounted to 0.92 µM.
Consider `N#Cc1cccc(Cl)c1-n1ncc2c(O[C@@H](COCCO)C(=O)Nc3ccc(Cl)cn3)ncnc21` [Example 174, (2S)-2-(1-(2-chloro-6-cyanophenyl)-1H-pyrazolo[3,4-d]pyrimidin-4-yloxy)-N-(5-chloropyridin-2-yl)-3-(2-hydroxyethoxy)propanamide], for which the EC50 stood at 0.23 µM.
For `Cc1ccc(NC(=O)[C@H](CO[C@H](C)CO)Oc2ncnc3c2cnn3-c2c(Cl)cccc2C#N)nc1` [Example 175, (2S)-2-(1-(2-chloro-6-cyanophenyl)-1H-pyrazolo[3,4-d]pyrimidin-4-yloxy)-3-((R)-1-hydroxypropan-2-yloxy)-N-(5-methylpyridin-2-yl)propanamide], the EC50 amounted to 0.27 µM.
With `Cc1ccc(NC(=O)[C@H](COCCO)Oc2ncnc3c2cnn3-c2c(Cl)cccc2C#N)nc1` [Example 176, (2S)-2-(1-(2-chloro-6-cyanophenyl)-1H-pyrazolo[3,4-d]pyrimidin-4-yloxy)-3-(2-hydroxyethoxy)-N-(5-methylpyridin-2-yl)propanamide], the EC50 was 0.38 µM.
`CC(C)OC[C@H](Oc1ncnc2c1cnn2-c1ncccc1Cl)C(=O)Nc1ccc(S(C)(=O)=O)cn1` [Example 177, (2S)-2-(1-(3-chloropyridin-2-yl)-1H-pyrazolo[3,4-d]pyrimidin-4-yloxy)-3-isopropoxy-N-(5-(methylsulfonyl)pyridin-2-yl)propanamide]: the EC50 was 1.5 µM.
In the case of `CC(C)OC[C@H](Oc1ncnc2c1cnn2-c1ncccc1Cl)C(=O)Nc1ccc(C(=O)N(C)C)cn1` [Example 178, 6-((2S)-2-(1-(3-chloropyridin-2-yl)-1H-pyrazolo[3,4-d]pyrimidin-4-yloxy)-3-isopropoxypropanamido)-N,N-dimethylnicotinamide], the 50% effective concentration (EC50) is 4.3 µM.
For `Cc1ccc(C)c(-n2ncc3c(O[C@@H](COCCO)C(=O)Nc4ccc(Cl)cn4)ncnc32)c1` [Example 179, (2S)—N-(5-chloropyridin-2-yl)-2-(1-(2,5-dimethylphenyl)-1H-pyrazolo[3,4-d]pyrimidin-4-yloxy)-3-(2-hydroxyethoxy)propanamide], the EC50 came out at 0.62 µM.
With `Cc1ccc(F)cc1-n1ncc2c(O[C@@H](COCCO)C(=O)Nc3ccc(Cl)cn3)ncnc21` [Example 180, (2S)—N-(5-chloropyridin-2-yl)-2-(1-(5-fluoro-2-methylphenyl)-1H-pyrazolo[3,4-d]pyrimidin-4-yloxy)-3-(2-hydroxyethoxy)propanamide], the EC50 came to 0.94 µM.
For the molecule `Cc1ccc(NC(=O)[C@H](COCCO)Oc2ncnc3c2cnn3Cc2ccccc2)nc1` [Example 181, (S)-2-(1-benzyl-1H-pyrazolo[3,4-d]pyrimidin-4-yloxy)-3-(2-hydroxyethoxy)-N-(5-methylpyridin-2-yl)propanamide], the concentration for a half-maximal effect (EC50) came to 3.3 µM.
Turning to `Cc1ccc(F)cc1-n1ncc2c(O[C@@H](COCCO)C(=O)Nc3ccc(C#N)cn3)ncnc21` [Example 182, (2S)—N-(5-cyanopyridin-2-yl)-2-(1-(5-fluoro-2-methylphenyl)-1H-pyrazolo[3,4-d]pyrimidin-4-yloxy)-3-(2-hydroxyethoxy)propanamide], the half-maximal effective concentration (EC50) stood at 3 µM.
In the case of `Cc1ccc(C#N)cc1-n1ncc2c(O[C@@H](COCCO)C(=O)Nc3ccc(C#N)cn3)ncnc21` [Example 183, (2S)-2-(1-(5-cyano-2-methylphenyl)-1H-pyrazolo[3,4-d]pyrimidin-4-yloxy)-N-(5-cyanopyridin-2-yl)-3-(2-hydroxyethoxy)propanamide], the EC50 came out at 7.7 µM.
On to `Cc1ccc(NC(=O)[C@H](COCCO)Oc2ncnc3c2cnn3-c2cc(C#N)ccc2C)nc1` [Example 184, (2S)-2-(1-(5-cyano-2-methylphenyl)-1H-pyrazolo[3,4-d]pyrimidin-4-yloxy)-3-(2-hydroxyethoxy)-N-(5-methylpyridin-2-yl)propanamide], for which the EC50 was 1.5 µM.
For `Cc1ccc(C#N)cc1-n1ncc2c(O[C@@H](COCCO)C(=O)Nc3ccc(Cl)cn3)ncnc21` [Example 185, (2S)—N-(5-chloropyridin-2-yl)-2-(1-(5-cyano-2-methylphenyl)-1H-pyrazolo[3,4-d]pyrimidin-4-yloxy)-3-(2-hydroxyethoxy)propanamide] the value was 3.7 µM.
With `CCOC[C@H](Oc1ncnc2c1cnn2-c1cc(C)ccc1C)C(=O)Nc1ccc(C#N)cn1` [Example 186, (2S)—N-(5-cyanopyridin-2-yl)-2-(1-(2,5-dimethylphenyl)-1H-pyrazolo[3,4-d]pyrimidin-4-yloxy)-3-ethoxypropanamide] the figure was 1.8 µM.
On to `Cc1cnc(NC(=O)[C@H](COC2CCC2)Oc2ncnc3c2cnn3-c2cnccc2C)cn1` [Example 188, (2S)-3-cyclobutoxy-N-(5-methylpyrazin-2-yl)-2-(1-(4-methylpyridin-3-yl)-1H-pyrazolo[3,4-d]pyrimidin-4-yloxy)propanamide], for which the EC50 stood at 1.1 µM.
Take `C[C@H](CO)OC[C@H](Oc1ncnc2c1cnn2-c1ncccc1Cl)C(=O)Nc1ccc(C#N)cn1` [Example 189, (2S)-2-(1-(3-chloropyridin-2-yl)-1H-pyrazolo[3,4-d]pyrimidin-4-yloxy)-N-(5-cyanopyridin-2-yl)-3-((R)-1-hydroxypropan-2-yloxy)propanamide]: the concentration for a half-maximal effect (EC50) turned out to be 0.6 µM.
Consider `C[C@H](CO)OC[C@H](Oc1ncnc2c1cnn2-c1ncccc1Cl)C(=O)Nc1ccc(Cl)cn1` [Example 190, (2S)—N-(5-chloropyridin-2-yl)-2-(1-(3-chloropyridin-2-yl)-1H-pyrazolo[3,4-d]pyrimidin-4-yloxy)-3-((R)-1-hydroxypropan-2-yloxy)propanamide], for which the EC50 was found to be 0.37 µM.
`C[C@H](CO)OC[C@H](Oc1ncnc2c1cnn2-c1ncccc1Cl)C(=O)Nc1ccc(F)cn1` [Example 191, (2S)-2-(1-(3-chloropyridin-2-yl)-1H-pyrazolo[3,4-d]pyrimidin-4-yloxy)-N-(5-fluoropyridin-2-yl)-3-((R)-1-hydroxypropan-2-yloxy)propanamide]: the EC50 worked out at 0.84 µM.
`C[C@@H](CO)OC[C@H](Oc1ncnc2c1cnn2-c1ncccc1Cl)C(=O)Nc1ccc(F)cn1` [Example 192, (2S)-2-(1-(3-chloropyridin-2-yl)-1H-pyrazolo[3,4-d]pyrimidin-4-yloxy)-N-(5-fluoropyridin-2-yl)-3-((S)-1-hydroxypropan-2-yloxy)propanamide]: the EC50 amounted to 0.36 µM.
Regarding `C[C@@H](CO)OC[C@H](Oc1ncnc2c1cnn2-c1ncccc1Cl)C(=O)Nc1ccc(Cl)cn1` [Example 193, (2S)—N-(5-chloropyridin-2-yl)-2-(1-(3-chloropyridin-2-yl)-1H-pyrazolo[3,4-d]pyrimidin-4-yloxy)-3-((S)-1-hydroxypropan-2-yloxy)propanamide], the EC50 is 3.3 µM.
With `Cc1ccc(NC(=O)[C@H](COCCO)Oc2ncnc3c2cnn3-c2ccccc2Cl)nc1` [Example 194, (2S)-2-(1-(2-chlorophenyl)-1H-pyrazolo[3,4-d]pyrimidin-4-yloxy)-3-(2-hydroxyethoxy)-N-(5-methylpyridin-2-yl)propanamide], the EC50 is 0.58 µM.
Regarding `Cc1ccc(NC(=O)[C@H](COCCO)Oc2ncnc3c2nnn3-c2ccccc2Cl)nc1` [Example 195, (2S)-2-(3-(2-chlorophenyl)-3H-[1,2,3]triazolo[4,5-d]pyrimidin-7-yloxy)-3-(2-hydroxyethoxy)-N-(5-methylpyridin-2-yl)propanamide], the EC50 turned out to be 2 µM.
Consider `CCOC[C@H](Oc1ncnc2c1nnn2-c1ccccc1Cl)C(=O)Nc1ccc(C#N)cn1` [Example 197, (2S)-2-(3-(2-chlorophenyl)-3H-[1,2,3]triazolo[4,5-d]pyrimidin-7-yloxy)-N-(5-cyanopyridin-2-yl)-3-ethoxypropanamide], for which the EC50 stood at 0.6 µM.
Take `Cc1ccccc1-n1nnc2c(O[C@@H](COCCO)C(=O)Nc3ccc(Cl)cn3)ncnc21` [Example 198, (2S)—N-(5-chloropyridin-2-yl)-3-(2-hydroxyethoxy)-2-(3-o-tolyl-3H-[1,2,3]triazolo[4,5-d]pyrimidin-7-yloxy)propanamide]: the EC50 turned out to be 2.2 µM.
For `O=C(Nc1ccccn1)[C@H](COCCO)Oc1ncnc2c1cnn2-c1ccccc1C(F)(F)F` [Example 199, (2S)-3-(2-hydroxyethoxy)-N-(pyridin-2-yl)-2-(1-(2-(trifluoromethyl)phenyl)-1H-pyrazolo[3,4-d]pyrimidin-4-yloxy)propanamide], the EC50 was determined as 1.1 µM.
With `C[C@H](CO)OC[C@H](Oc1ncnc2c1cnn2-c1ccccc1Cl)C(=O)Nc1ccccn1` [Example 200, (2S)-2-(1-(2-chlorophenyl)-1H-pyrazolo[3,4-d]pyrimidin-4-yloxy)-3-((R)-1-hydroxypropan-2-yloxy)-N-(pyridin-2-yl)propanamide] the figure was 0.44 µM; with `O=C(Nc1ccccn1)[C@H](COCCO)Oc1ncnc2c1cnn2-c1ccccc1Cl` [Example 201, (2S)-2-(1-(2-chlorophenyl)-1H-pyrazolo[3,4-d]pyrimidin-4-yloxy)-3-(2-hydroxyethoxy)-N-(pyridin-2-yl)propanamide], 0.65 µM.
